According to patent US11076594B2, “Pyrazolone compound or salt thereof, preparation method therefor, herbicide composition and use thereof” (QINGDAO KINGAGROOT CHEMICAL COMPOUNDS CO., LTD., priority 2015, dated 2021):

Columns and labels:
Type in all cases: in vivo
Conditions in all cases: post-emergence spray at 4-5 leaf stage, 250 g/ha active ingredient with 450 kg/ha water, rated after 3 weeks in greenhouse
Indian mallow = assay: weed control effect in post-emergence stage (Table 1); parameters: key: Level 10: completely dead; Level 9: above 95% growth control rate; Level 8: above 90% growth control rate; Level 7: above 80% growth control rate; Level 6: above 70% growth control rate; Level 5: above 60% growth control rate; Level 4: above 50% growth control rate; Level 3: above 20% growth control rate; Level 2: 5%-20% growth control rate; Level 1: below 5% growth control rate
Protocol: (§1) The activity level standard of harmful plant destruction (i.e. growth control rate) is as follows: The above described growth control rate is fresh weight control rate. Monocotyledonous and dicotyledonous weed seeds and main crop seeds (i.e. wheat, corn, rice, soybean, cotton, oilseed, millet and sorghum.) were put into a plastic pot loaded with soil. Then covered with 0.5-2 cm soil, the seeds were allowed to grow in good greenhouse environment. The test plants were treated at 4-5 leaf stage 2-3 weeks after sowing. The test compounds of the invention were dissolved with acetone respectively, then added with 80 tween and diluted by certain amount of water to certain concentration. The solution was sprayed to the plants with a sprayer. Then the plants were cultured for 3 weeks in the greenhouse.

bidens bipinnata = assay: as above; parameters: key: Level 10: completely dead; Level 9: above 95% growth control rate; Level 8: above 90% growth control rate; Level 7: above 80% growth control rate; Level 6: above 70% growth control rate; Level 5: above 60% growth control rate; Level 4: above 50% growth control rate; Level 3: above 20% growth control rate; Level 2: 5%-20% growth control rate; Level 1: below 5% growth control rate
Protocol: as §1

crab grass = assay: as above; parameters: key: Level 10: completely dead; Level 9: above 95% growth control rate; Level 8: above 90% growth control rate; Level 7: above 80% growth control rate; Level 6: above 70% growth control rate; Level 5: above 60% growth control rate; Level 4: above 50% growth control rate; Level 3: above 20% growth control rate; Level 2: 5%-20% growth control rate; Level 1: below 5% growth control rate
Protocol: as §1

echinochloa = assay: as above; parameters: key: Level 10: completely dead; Level 9: above 95% growth control rate; Level 8: above 90% growth control rate; Level 7: above 80% growth control rate; Level 6: above 70% growth control rate; Level 5: above 60% growth control rate; Level 4: above 50% growth control rate; Level 3: above 20% growth control rate; Level 2: 5%-20% growth control rate; Level 1: below 5% growth control rate
Protocol: as §1

foxtail = assay: as above; parameters: key: Level 10: completely dead; Level 9: above 95% growth control rate; Level 8: above 90% growth control rate; Level 7: above 80% growth control rate; Level 6: above 70% growth control rate; Level 5: above 60% growth control rate; Level 4: above 50% growth control rate; Level 3: above 20% growth control rate; Level 2: 5%-20% growth control rate; Level 1: below 5% growth control rate
Protocol: as §1

rorippa indica = assay: as above; parameters: key: Level 10: completely dead; Level 9: above 95% growth control rate; Level 8: above 90% growth control rate; Level 7: above 80% growth control rate; Level 6: above 70% growth control rate; Level 5: above 60% growth control rate; Level 4: above 50% growth control rate; Level 3: above 20% growth control rate; Level 2: 5%-20% growth control rate; Level 1: below 5% growth control rate
Protocol: as §1

wheat = assay: post-emergence stage experiment, crop (Table 1)
Protocol: as §1

rice = assay: post-emergence stage experiment, crop (Table 1)
Protocol: as §1

Compound	effect on crop, Wheat (level) (wheat)	weed control effect, Indian mallow (level) (Indian mallow)	weed control effect, Bidens bipinnata (level) (bidens bipinnata)	weed control effect, Crab grass (level) (crab grass)	weed control effect, Echinochloa (level) (echinochloa)	weed control effect, Green foxtail (level) (foxtail)	weed control effect, Rorippa indica (level) (rorippa indica)	effect on crop, Rice (level) (rice)
CC(=O)Nc1c(C(F)(F)F)ccc(C(=O)c2c(C)nn(C)c2O)c1Cl [Compound 002]	5 (Level 5: above 60% growth control rate)	10	8 (Level 8: above 90% growth control rate)	4 (Level 4: above 50% growth control rate)	8 (Level 8: above 90% growth control rate)	7 (Level 7: above 80% growth control rate)	9 (Level 9: above 95% growth control rate)	7 (Level 7: above 80% growth control rate)
Cc1cnn(-c2c(C(F)(F)F)ccc(C(=O)c3c(C)nn(C)c3O)c2Cl)c1 [Compound 084]	0	10	10	8 (Level 8: above 90% growth control rate)	10	10	9 (Level 9: above 95% growth control rate)	7 (Level 7: above 80% growth control rate)
CC(=O)N(C)c1c(C(F)(F)F)ccc(C(=O)c2c(C)nn(C)c2O)c1Cl [Compound 004]	0	9 (Level 9: above 95% growth control rate)	9 (Level 9: above 95% growth control rate)	4 (Level 4: above 50% growth control rate)	4 (Level 4: above 50% growth control rate)	1 (Level 1: below 5% growth control rate)	9 (Level 9: above 95% growth control rate)	5 (Level 5: above 60% growth control rate)
Cc1nn(C)c(O)c1C(=O)c1ccc(C(F)(F)F)c(N2CCCC2=O)c1Cl [Compound 018]	3 (Level 3: above 20% growth control rate)	9 (Level 9: above 95% growth control rate)	10	10	8 (Level 8: above 90% growth control rate)	10	10	
Cc1nn(C)c(O)c1C(=O)c1ccc(C(F)(F)F)c(-n2cc(Cl)cn2)c1Cl [Compound 095]	0	0		1 (Level 1: below 5% growth control rate)	1 (Level 1: below 5% growth control rate)	1 (Level 1: below 5% growth control rate)	0	6 (Level 6: above 70% growth control rate)
Cc1nn(C)c(O)c1C(=O)c1ccc(C(F)(F)F)c(-n2ccnc2)c1Cl [Compound 063]	0	10	10	0	1 (Level 1: below 5% growth control rate)	1 (Level 1: below 5% growth control rate)	9 (Level 9: above 95% growth control rate)	
Cc1cc(C)n(-c2c(C(F)(F)F)ccc(C(=O)c3c(C)nn(C)c3O)c2Cl)n1 [Compound 093]	0	5 (Level 5: above 60% growth control rate)	5 (Level 5: above 60% growth control rate)	2 (Level 2: 5%-20% growth control rate)	5 (Level 5: above 60% growth control rate)	2 (Level 2: 5%-20% growth control rate)	0	0
COCCOCCCN(C(C)=O)c1c(C(F)(F)F)ccc(C(=O)c2c(C)nn(C)c2O)c1Cl [Compound 012]	0	10	10	1 (Level 1: below 5% growth control rate)	9 (Level 9: above 95% growth control rate)	2 (Level 2: 5%-20% growth control rate)	0	0

Further lines, with some results ahead:

effect on crop, Wheat (level) (wheat)	Compound	weed control effect, Indian mallow (level) (Indian mallow)	weed control effect, Bidens bipinnata (level) (bidens bipinnata)	weed control effect, Crab grass (level) (crab grass)	weed control effect, Echinochloa (level) (echinochloa)	weed control effect, Green foxtail (level) (foxtail)	weed control effect, Rorippa indica (level) (rorippa indica)	effect on crop, Rice (level) (rice)
0	CCCCN(C(C)=O)c1c(C(F)(F)F)ccc(C(=O)c2c(C)nn(C)c2O)c1Cl [Compound 006]	0	5 (Level 5: above 60% growth control rate)	2 (Level 2: 5%-20% growth control rate)	10	3 (Level 3: above 20% growth control rate)	5 (Level 5: above 60% growth control rate)	1 (Level 1: below 5% growth control rate)
0	COCCCN(C(C)=O)c1c(C(F)(F)F)ccc(C(=O)c2c(C)nn(C)c2O)c1Cl [Compound 008]	3 (Level 3: above 20% growth control rate)	10	3 (Level 3: above 20% growth control rate)	10	10	0	0
0	CC(=O)N(CCCOC(C)C)c1c(C(F)(F)F)ccc(C(=O)c2c(C)nn(C)c2O)c1Cl [Compound 010]	0	5 (Level 5: above 60% growth control rate)	1 (Level 1: below 5% growth control rate)	6 (Level 6: above 70% growth control rate)	5 (Level 5: above 60% growth control rate)	0	0
0	CCCCOCCCN(C(C)=O)c1c(C(F)(F)F)ccc(C(=O)c2c(C)nn(C)c2O)c1Cl [Compound 011]	0	5 (Level 5: above 60% growth control rate)	1 (Level 1: below 5% growth control rate)	1 (Level 1: below 5% growth control rate)	1 (Level 1: below 5% growth control rate)	0	0
0	CCOCCCN(C(C)=O)c1c(C(F)(F)F)ccc(C(=O)c2c(C)nn(C)c2O)c1Cl [Compound 009]	2 (Level 2: 5%-20% growth control rate)	5 (Level 5: above 60% growth control rate)	1 (Level 1: below 5% growth control rate)	10	9 (Level 9: above 95% growth control rate)	0	5 (Level 5: above 60% growth control rate)
